Source: US20090170926A1, “Antiviral agents” (Monash Univeristy, priority 2004, published 2009)
Like-named read-outs stand apart in the source and are kept apart here.

Tests used:
[1] = tested on: hepatitis B in 2.2.15 human hepatoma cells; assay: Antiviral activity in 2.2.15 human hepatoma cells infected with hepatitis B (viral DNA in supernatant); format: cell-based; conditions: Hepatitis B virus; for EC50: read-out: EC50 (effective concentration for 50% inhibition of the replication of the virus); for EC90: read-out: EC90 (effective concentration for 90% inhibition of the replication of the virus)
Experimental: Tests of antiviral activity were performed in 2.2.15 human hepatoma cells infected with hepatitis B according to the method of Korba and Gerin, Antiviral Research, 19, 55-70 (1992). Briefly, cells were seeded into 96 well plates and cell media containing various concentrations of the compounds was added. Media was changed daily for 9 days and fresh media containing compound was added each day. On the 10th day, viral DNA in the supernatant was measured and the reduction in the amount of virus in the supernatant was calculated compared to cells incubated without drug. Six separate replicates were performed for each drug concentration. The effective concentration for 50% and 90% inhibition of the replication of the virus was determined from dose response curves.

[2] = tested on: HBV containing mutations associated with resistance to lamivudine (L180M and L180M/M204V in the HBV DNA polymerase) in HepG2 hepatoma cells; assay: HBV core protein level in HepG2 hepatoma cells infected with lamivudine-resistant HBV (non-denaturing Western blot); format: cell-based, hepatitis B virus; conditions: day 5, HBV core protein vs controls
Experimental: Antiviral activity was also examined in HepG2 hepatoma cells infected with HBV containing mutations associated with resistance to lamivudine (3TC). Two cell lines containing an L180M mutation in the HBV DNA polymerase, and a double L180M/M204V mutation were used. Cells were plated out in six well plates and allowed to attach overnight. Next day, the culture medium was replaced with either medium alone or medium containing the desired concentration of antiviral compound. Media was changed for fresh medium with or without antiviral compound on day 3. On day 5, supernatant and cell lysatcs were analysed for levels of HBV core protein by non-denaturing Western blot using an anti-HBV core antibody.
Results for some of the compounds are shown in Table 2 where a 50% reduction or more in measured level of the viral core protein compared to controls at a compound concentration of greater than 50 μmolar is designated +50% core reduction at less than 50 μmolar is designated ++ and 50% core reduction at less than 10 μmolar compound concentration is designated +++.

Solubility in water = format: physicochemical; conditions: read-out: solubility in water (fully soluble)
Experimental: The ^1H NMR can also be run in D2O, compound 13 is fully soluble in water at 10 mg/mL

[3] = 2.2.15 cells, 9 days treatment, viral DNA in supernatant on day 10

Structure (SMILES)	melting point [°C]	≧50% core reduction [2]	further results
CC1(C)C=Cc2c(ccc3c2C(=O)C=C(O)C3=O)O1 [Compound 1, 8-hydroxy-3,3-dimethyl-3H-naphtho[2,1-b]pyran-7,10-dione]	208	+++ (50% core reduction at less than 10 μmolar compound concentration is designated +++)	EC50 [1]: 0.6 µM; EC90 [1]: 3.4 µM
CC1(C)C=Cc2c(ccc3c2C(=O)C=C(O)C3=O)O1 [Compound 13, Sodium 3,3-dimethyl-7,10-dioxo-7,10-dihydro-3H-benzo[f]chromen-8-olate]	–	+ (a 50% reduction or more in measured level of the viral core protein compared to controls at a compound concentration of greater than 50 μmolar is designated +)	solubility (Solubility in water): ≥ 10000 µg/mL
CC1(C)C=Cc2c(ccc3c2C(=O)C(Br)=C(O)C3=O)O1 [Compound 6, 9-Bromo-8-hydroxy-3,3-dimethyl-3H-naphtho[2,1-b]pyran-7,10-dione]	–	+ (a 50% reduction or more in measured level of the viral core protein compared to controls at a compound concentration of greater than 50 μmolar is designated +)	–
CC1(C)CCc2c(ccc3c2C(=O)C(Cl)=C(Cl)C3=O)O1	158 to 160	–	–
CC1(C)CCc2c(ccc3c2C(=O)C=C(O)C3=O)O1 [Compound 2, 8-Hydroxy-3,3-dimethyl-1,2-dihydro-3H-naphtho[2,1-b]pyran-7,10-dione]	183.5 to 187	–	EC50 [1, 3]: 1.1 µM; EC90 [1, 3]: 1.3 µM
CC1(C)CCc2c(ccc3c2C(=O)C(Br)=C(O)C3=O)O1 [Compound 5, 9-bromo-8-hydroxy-3,3-dimethyl-1,2-dihydro-3H-naphtho[2,1-b]pyran-7,10-dione]	213 to 216	++ (50% core reduction at less than 50 μmolar is designated ++)	–
Cc1ccc(S(=O)(=O)OC2=C(Br)C(=O)c3c(ccc4c3C=CC(C)(C)O4)C2=O)cc1	167 to 168	–	–

Continued, in another order:

melting point [°C]	Structure (SMILES)	≧50% core reduction [2]	further results
109 to 115	Cc1ccc(S(=O)(=O)OC2=C(Br)C(=O)c3c(ccc4c3CCC(C)(C)O4)C2=O)cc1	–	–
168 to 169.5	Cc1ccc(S(=O)(=O)OC2=C(Br)C(=O)c3ccc4c(c3C2=O)CCC(C)(C)O4)cc1	–	–
181.5 to 184	Cc1ccc(S(=O)(=O)OC2=C(Br)C(=O)c3ccc4c(c3C2=O)C=CC(C)(C)O4)cc1	–	–
